# In US11447482B1, “Imidazopyridine and oxazolopyridine derivatives and analogs thereof, methods of preparation thereof, methods of HIF-2A pathway inhibition, and induction of ferroptosis” (KUDA Therapeutics, Inc., priority 2019, dated 2022):
# Tests used:
# 786-0 CCRCC cells = experiment: ICP-MS of cellular iron, zinc and copper; type: cell-based, human; settings: 786-0 cells, 24 hours, 1.5 μM KD002 or KD021, 2.5 μM KD025HCl, versus DMSO
# Experimental: These studies were performed to determine the content of iron and other transition metals in cells after exposure the compounds described herein. 786-0 cells were seeded at 1.5 million cells/flask in T75 cm^2 flasks in DMEM+10% FBS, and allowed to adhere overnight. Cells were then treated with indicated concentrations of compounds in DMSO or DMSO alone (vehicle) for a further 24 hours, after which cells were detached by trypsinization, counted, washed twice in PBS and pelleted. Experiments were performed using three replicate T75 cm^2 flasks per condition. A 5:1 mixture of nitric acid (OPTIMA Grade, 70%, Fisher Scientific) and ultrapure hydrogen peroxide (ULTREX II, 30%, Fisher Scientific) was added to cell pellets. This mixture was allowed to digest overnight, heated until dry, and resuspended in 2% nitric acid for analysis using an Agilent 7900 ICP-MS (Agilent Technologies, Santa Clara, Calif.). Calibration standard solutions for determination of Fe were prepared from Agilent multi-element calibration standard-2A. An Agilent Environmental Calibration Standard was used as an independent control. PBS-only control digestions were used to measure background. Metal readings were normalized to cell number. Data obtained from these studies for three replicate readings (with SEM) are shown in FIG. 4, which show an increase in cellular iron (Fe) content after treatment with indicated compounds.
# IRP2 = experiment: Western blot of treated 786-0 cells: IRP2; type: cell-based, human
# Experimental: Western blots were performed to determine the effects of the compounds on levels of HIF-2α and other relevant proteins. 786-0 (pVHL deficient clear cell kidney cancer cells) were purchased from ATCC were plated at 1×10E5 cells/well in 2 ml DMEM with 10% FBS/well in 6-well tissue culture plates. Cells were allowed to adhere overnight in a humidified incubator at 37° C. with 5% CO2, after which the appropriate concentrations of compounds in DMSO were added. DMSO concentrations were kept constant in all wells. After 24 hour's exposure to the compounds, cells were lysed and subjected to western blotting according to standard protocols (Polek, Talpaz et al. 2003). Antibodies for HIF-2α and Glyceraldehyde 3-Phosphate Dehydrogenase (GAPDH) were purchased from Cell Signaling Technology (Danvers, Mass.), whereas antibodies to iron responsive element binding protein 2 (IRP2) and Glutathione Peroxidase 4 (GPX4) were from Santa Cruz Biotechnology (Dallas, Tex.) and R&D Systems, Inc (Minneapolis, Minn.). Representative data in FIG. 3 show a dose-dependent effect of compounds in decreasing HIF-2α. Compounds also impact cellular iron sensing given by increased IRP2, which taken together indicate that cells sense decreased amounts of available iron. Representative data shown in FIG. 5 Part C show a dose dependent effect of the compounds on GPX4, which may indicate decreased resistance to ferroptosis.
smiles,measurement,setting,value
"COc1ccc(-c2nnc(Nc3nc4c(OC)nccc4[nH]3)o2)cc1OC [KD025HCl, N-(4-Methoxy-1H-imidazo[4,5-c]pyridin-2-yl)-5-(3,4-dimethoxyphenyl)-1,3,4-oxadiazol-2-amine]",cellular copper (Cu) content (ICP-MS),786-0 CCRCC cells,increases
same,cellular iron (Fe) content (ICP-MS),786-0 CCRCC cells,increases
same,cellular zinc (Zn) content (ICP-MS),786-0 CCRCC cells,increases
same,IRP2 protein relative to GAPDH (western blot),"IRP2; 786-0 CCRCC cells, 24 hours",increases
same,IRP2 protein (western blot) at higher concentrations,"IRP2; 786-0 cells, higher concentrations of KD025HCl, FIG. 4 Part D",decrease
